Literature values, collected in EP1195160B1, “Sustained release trimetazidine pharmaceutical compositions and a method of their preparation” (USV Ltd., priority 2000, dated 2002).
Like-named read-outs stand apart in the source and are kept apart here.

What was measured:
[1] = value from the literature
[2] = 20mg, single dose administration
[3] = 80mg dose, prolonged release coated reservoir system of EP 0 673 649, 12 volunteers
[4] = oral, immediate release preparation

COc1ccc(CN2CCNCC2)c(OC)c1OC.Cl.Cl [Trimetazidine dihydrochloride, 1-(2,3,4-trimethoxybenzyl)-piperazine dihydrochloride]
Elimination half life t 1/2 [1]: t 1/2 = 6.0 hours. | Plasma concentration Css [1]: Css = 84ng/ml | T max [1]: T max = 1.8 ± 0.7 hours. | Volume of distribution Vd [1]: Vd = 294 litres. | maximum plasma concentration Cmax [2]: 53.6 ± 9.0 ng/mL | steady state plasma concentration (Css) [3]: around 110 ng/ml | T max [4]: around 1.8 ± 0.7 hours | plasma half life [4]: around 6.0 ± 1.4 hours
